Here are results for three compounds from patent publication US7935825B2, “Arylsulfanyl and heteroarylsulfanyl derivatives for treating pain” (Allergan, Inc., priority 2001, dated 2011).

Read-outs that look alike come from different tables or passages of the source.

In assay [1] the test system is tactile allodynia. Put plainly: Chronic pain model: spinal nerve (L5/L6) ligation, tactile allodynia measured with von Frey hairs. It is filed as in vivo. To be noted: rats. An excerpt:
A model for chronic pain (in particular peripheral neuropathy such as causalgia) involves the surgical ligation of the L5 (and optionally the L6) spinal nerves on one side in experimental animals. Rats recovering from the surgery gain weight and display a level of general activity similar to that of normal rats. However, these rats develop abnormalities of the foot, wherein the hindpaw is moderately everted and the toes are held together. More importantly, the hindpaw on the side affected by the surgery appears to become sensitive to pain from low-threshold mechanical stimuli, such as that producing a faint sensation of touch in a human, within about 1 week following surgery. This sensitivity to normally non-painful touch is called “tactile allodynia” and lasts for at least two months. The response includes lifting the affected hindpaw to escape from the stimulus, licking the paw and holding it in the air for many seconds. None of these responses is normally seen in the control group.
Rats are anesthetized before surgery. The surgical site is shaved and prepared either with betadine or Novacaine. Incision is made from the thoracic vertebra Xlll down toward the sacrum. Muscle tissue is separated from the spinal vertebra (left side) at the L4-S2 levels. The L6 vertebra is located and the transverse process is carefully removed with a small rongeur to expose the L4-L6 spinal nerves. The L5 and L6 spinal nerves are isolated and tightly ligated with 6-0 silk thread. The same procedure is done on the right side as a control, except no ligation of the spinal nerves is performed.
A complete hemostasis is confirmed, then the wounds are sutured. A small amount of antibiotic ointment is applied to the incised area, and the rat is transferred to the recovery plastic cage under a regulated heat-temperature lamp. On the day of the experiment, at least seven days after the surgery, six rats per test group are administered the test drugs by intraperitoneal (i.p.) injection or oral gavage. For i.p. injection, the compounds are formulated in approximately 50% DMSO and given in a volume of 1 ml/kg body weight. The compound of Example 7 was tested at doses ranging between 30 and 3000 ng/kg. A volume equal to 1 ml/kg body weight of an appropriate concentration (i.e.. 1 mg/ml for a 1 mg/kg dose) of the compound of Example 7 formulated in approximately 50% DMSO was injected using an 18-gauge, 3-inch gavage needle that is slowly inserted through the esophagus into the stomach.
Tactile allodynia is measured prior to and 30 minutes after drug administration using von Frey hairs that are a series of fine hairs with incremental differences in stiffness. Rats are placed in a plastic cage with a wire mesh bottom and allowed to acclimate for approximately 30 minutes. The von Frey hairs are applied perpendicularly through the mesh to the mid-plantar region of the rats' hindpaw with sufficient force to cause slight buckling and held for 6-8 seconds. The applied force has been calculated to range from 0.41 to 15.1 grams. If the paw is sharply withdrawn, it is considered a positive response. A normal animal will not respond to stimuli in this range, but a surgically ligated paw will be withdrawn in response to a 1-2 gram hair. The 50% paw withdrawal threshold is determined using the method of Dixon, W. J., Ann. Rev. Pharmacol. Toxicol. 20:441-462 (1980). The post-drug threshold is compared to the pre-drug threshold and the percent reversal of tactile sensitivity is calculated based on a normal threshold of 15.1 grams. […] Compared to a saline solution, this compound reversed the allodynic pain by 25% at an i.p. dose of 100 ng/kg, 60% at 300 ng/kg, 90% at […] and 92% at 3000 ng/kg.

Assay [2] relates to receptors for PGE2. To be noted: cited from earlier work.
Setting [3] is: i.p. dose of 100 ng/kg, 30 minutes after drug administration.
The mark [4] stands for this setting: i.p. dose of 300 ng/kg, 30 minutes after drug administration.

Regarding `CCN(Cc1cc(Br)ccc1OCc1ccccc1)c1ccc(C(=O)O)cn1` [6-[(2-Benzyloxy-5-bromobenzyl)ethylamino]nicotinic acid], the “reversal of allodynic pain (percent reversal of tactile sensitivity)” value in assay [1] (i.p. dose of 30 ng/kg, 30 minutes after drug administration) turned out to be 10%; in assay [1] (setting [3]), 50%; in assay [1] (setting [4]), 55%; in assay [1] (i.p., dose figure not printed ("at ng/kg")), 60%.

For `CCN(Cc1ccccc1SCc1ccccc1)c1ccc(C(=O)O)cn1` [Example 7, 6-[(2-Benzylsulfanylbenzyl)ethylamino]nicotinic acid], in assay [1] (doses between 30 and 3000 ng/kg), the “response to the tactile stimuli that indicate tactile allodynia” value is “able to reduce the response to the tactile stimuli”. Moreover, the “reversal of allodynic pain (percent reversal of tactile sensitivity)” value in assay [1] (setting [3]) came to 25%; in assay [1] (setting [4]), 60%; in assay [1] (i.p. dose of 3000 ng/kg, 30 minutes after drug administration) it was 92%; in assay [1] (i.p. dose printed as 100 mg/kg, 30 minutes after drug administration), 90%.

Regarding `CC(=O)NNC(=O)N1Cc2ccccc2Oc2ccc(Cl)cc21` [SC-19220], the “effect on PGE2 action in tissue” value is “not on other tissues” in assay [2] (cat trachea or chick ileum) and “blocks the effect of PGE2” in assay [2] (guinea pig ileum or dog fundus).
